Measurements reported in paper doi:10.1101/2022.02.27.481963v1 (biorxiv, 2022).

Legend:
[1] = system: fused MjGMPS; test: continuous absorbance at […] nm, GMP formation; type: biochemical, Methanocaldococcus jannaschii; details: ATPPase site, pH 7.0, 70 °C
[2] = substrate: O=c1[nH]c(=O)c2ncn([C@@H]3O[C@H](COP(=O)(O)O)[C@@H](O)[C@H]3O)c2[nH]1; test: purified protein; type: biochemical, Methanocaldococcus jannaschii; details: pH 7.0, 70 °C

Q: How did the Km ([1]; Mg2+ complex, saturating XMP) turn out when `Nc1ncnc2c1ncn2[C@@H]1O[C@H](COP(=O)(O)OP(=O)(O)OP(=O)(O)O)[C@@H](O)[C@H]1O` [ATP.Mg^2+] was run?
A: The Km was 503 ± 6 µM.

Q: For `O=c1[nH]c(=O)c2ncn([C@@H]3O[C@H](COP(=O)(O)O)[C@@H](O)[C@H]3O)c2[nH]1` [XMP], which Km ([1]; saturating ATP.Mg2+) is on record?
A: Its Km is 44 ± 1 µM.

B1: MjATPPase (Methanocaldococcus jannaschii DSM 2661) (protein)
chain: MFDPKKFIDEAVEEIKQQISDRKAIIALSGGVDSSVAAVLTHKAIGDKLTAVFVDTGLMRKGEREEVEKTFRDKLGLNLIVVDAKDRFLNALKGVTDPEEKRKIIGKLFIDVFEEIAEDIKAEVLVQGTIAPDWIETQGKIKSHHNVALPHGMVLEVVEPLRELYKDEVRLLAKELGLPDSIVYRQPFPGPGLAVRVLGEVTEEKLNICREANAIVEEEVKKANLDKDLWQYFAVVLDCKATGVKGDEREYNWIVALRMVKSLDAMTAHVPEIPFDLLKRISKRITSEIPNVARVVFDITDKPPATIEFE
Q: For B1, which Km ([2]; NH4Cl dependent, saturating ATP.Mg2+ and NH4Cl) is on record?
A: The Km was 30 ± 2 µM.

B2: MjGMPS (MjATPPase + MjGATase), ATPPase site (Methanocaldococcus jannaschii DSM 2661) (protein)
chain: B1 chain
Q: For B2, which Km ([2]; Gln dependent, saturating ATP.Mg2+ and Gln) is on record?
A: Its Km is 61 ± 3 µM.
